Patent US9187471B2, “Pyrido [4,3-b] indole and pyrido [3,4-b] indole derivatives and methods of use” (Medivation Technologies, Inc., priority 2010, dated 2015)

Experiments:
[1] = target: T1, human recombinant adrenergic α2A receptor (Homo sapiens, UniProt P08913); test: Adrenergic α2A radioligand binding ([3H]MK-912); settings: read-out: Adrenergic (0.1 μM) a2A, percent inhibition of specific binding; compound at 0.1 μM; 1 nM [3H]MK-912
T1 construct: expressed in transfected cells; host or cells: insect Sf9 cells
T1 sequence (P08913 1-465): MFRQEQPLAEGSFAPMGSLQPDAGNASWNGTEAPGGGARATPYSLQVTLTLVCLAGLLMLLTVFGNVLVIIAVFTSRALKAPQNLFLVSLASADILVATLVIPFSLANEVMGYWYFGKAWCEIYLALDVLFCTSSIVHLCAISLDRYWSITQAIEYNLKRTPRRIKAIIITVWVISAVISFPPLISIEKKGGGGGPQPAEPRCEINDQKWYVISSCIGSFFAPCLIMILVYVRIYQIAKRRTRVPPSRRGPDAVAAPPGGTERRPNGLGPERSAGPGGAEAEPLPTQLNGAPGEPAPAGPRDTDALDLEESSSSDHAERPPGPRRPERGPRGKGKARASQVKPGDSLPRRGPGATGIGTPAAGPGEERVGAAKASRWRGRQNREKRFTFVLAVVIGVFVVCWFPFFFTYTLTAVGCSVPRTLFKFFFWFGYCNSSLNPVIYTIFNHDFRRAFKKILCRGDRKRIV
Protocol: To evaluate in radioligand binding assays the activity of compounds of the invention, human recombinant adrenergic α2A receptor expressed in insect Sf9 cells (Uhlen, S. et al, J. Pharmacol. Exp. Ther. 271:1558, 1994) in a modified Tris-HCl buffer (50 mM Tris-HCl, pH 7.4, 12.5 mM MgCl2, 2 mM EDTA) was used. Compounds of invention were incubated with 1 nM [^3H]MK-912 for 60 min at 25° C. MK-912 is (2S-trans)-1,3,4,5′,6,6′,7,12b-octahydro-1′,3′-dimethyl-spiro[2H-benzofuro[2,3-a]quinolizine-2,4′(1′H)-pyrimidin]-2′(3′H)-one hydrochloride Non-specific binding was estimated in the presence of 10 μM WB-4101 (2-(2,6-Dimethoxyphenoxyethyl)aminomethyl-1,4-benzodioxane hydrochloride). Receptor proteins were filtered and washed, the filters were then counted to determine [^3H]MK-912 specifically bound. […] Compounds of the invention were tested in this biochemical assay and percent inhibition of specific binding was determined.

[2] = target: T2, human recombinant adrenergic α2B receptor (Homo sapiens, UniProt P18089); test: Adrenergic α2B radioligand binding ([3H]Rauwolscine); settings: read-out: Adrenergic (0.1 μM) a2B, percent inhibition of specific binding; compound at 0.1 μM; 2.5 nM [3H]Rauwolscine
T2 construct: expressed in transfected cells; host or cells: CHO-K1
T2 sequence (P18089 1-450): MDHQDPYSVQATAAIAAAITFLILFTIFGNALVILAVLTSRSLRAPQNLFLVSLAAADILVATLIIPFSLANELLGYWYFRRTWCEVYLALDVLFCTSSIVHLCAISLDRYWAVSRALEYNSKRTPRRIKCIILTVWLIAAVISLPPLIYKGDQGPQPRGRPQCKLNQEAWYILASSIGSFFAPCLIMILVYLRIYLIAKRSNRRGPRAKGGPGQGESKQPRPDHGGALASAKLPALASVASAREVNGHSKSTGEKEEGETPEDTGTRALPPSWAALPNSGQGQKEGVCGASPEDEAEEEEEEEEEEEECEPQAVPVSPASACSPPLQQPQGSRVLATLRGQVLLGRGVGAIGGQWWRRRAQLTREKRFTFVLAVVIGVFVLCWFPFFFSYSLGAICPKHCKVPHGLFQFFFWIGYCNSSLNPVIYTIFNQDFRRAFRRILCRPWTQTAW
Protocol: To evaluate in radioligand binding assays the activity of compounds of the invention, human recombinant adrenergic α2B receptor expressed in Chinese hamster ovary (CHO) K1 cells (Uhlen, S. et al, Eur. J. Pharmacol. 343(1):93, 1998) in a modified Tris-HCl buffer (50 mM Tris-HCl, pH 7.4, 12.5 mM MgCl2, 1 mM EDTA, 0.2% BSA) was used. Compounds of the invention were incubated with 2.5 nM [^3H]Rauwolscine for 60 min at 25° C. Non-specific binding was estimated in the presence of 10 μM Prazosin. Receptor proteins were filtered and washed, the filters were then counted to determine [^3H]Rauwolscine specifically bound. […] Compounds of the invention were tested in this biochemical assay and percent inhibition of specific binding was determined.

[3] = target: T3, human recombinant serotonin (5-Hydroxytryptamine) 5-HT2A receptor (Homo sapiens, UniProt P28223); test: Serotonin 5-HT2A radioligand binding ([3H]Ketanserin); settings: compound at 0.1 μM; read-out: Inhibition of ligand binding, Serotonin 5-HT2A (percent inhibition of specific binding)
T3 construct: expressed in transfected cells; host or cells: CHO-K1
T3 sequence (P28223 whole entry): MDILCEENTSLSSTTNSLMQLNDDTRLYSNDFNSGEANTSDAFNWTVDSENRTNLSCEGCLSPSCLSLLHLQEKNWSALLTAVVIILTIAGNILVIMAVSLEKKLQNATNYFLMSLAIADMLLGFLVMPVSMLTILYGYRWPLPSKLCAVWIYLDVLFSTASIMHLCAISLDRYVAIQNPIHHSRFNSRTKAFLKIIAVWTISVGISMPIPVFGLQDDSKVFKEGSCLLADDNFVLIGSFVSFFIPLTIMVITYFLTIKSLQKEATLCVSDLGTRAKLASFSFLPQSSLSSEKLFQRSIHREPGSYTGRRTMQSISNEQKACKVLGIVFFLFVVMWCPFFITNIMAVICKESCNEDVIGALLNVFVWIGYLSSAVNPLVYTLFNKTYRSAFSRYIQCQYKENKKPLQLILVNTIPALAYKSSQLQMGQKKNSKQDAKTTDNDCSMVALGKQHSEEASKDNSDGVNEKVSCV
Protocol: Compounds of the invention were incubated with 0.5 nM [^3H]Ketanserin for 60 min at 25° C. Non-specific binding was estimated in the presence of 1 μM Mianserin. Receptor proteins were filtered and washed, the filters were then counted to determine [^3H]Ketanserin specifically bound.

Adrenergic α1B = target: T4, Adrenergic α1B (Rattus norvegicus, UniProt P15823); test: Adrenergic α1B radioligand binding ([3H]Prazosin); settings: read-out: Adrenergic (0.1 μM) a1B, percent inhibition of specific binding; compound at 0.1 μM; 0.25 nM [3H]Prazosin; Wistar Rat liver
T4 construct: rat adrenergic α1D receptor obtained from Wistar Rat liver; from tissue; host or cells: Wistar rat liver
T4 sequence (P15823 1-515): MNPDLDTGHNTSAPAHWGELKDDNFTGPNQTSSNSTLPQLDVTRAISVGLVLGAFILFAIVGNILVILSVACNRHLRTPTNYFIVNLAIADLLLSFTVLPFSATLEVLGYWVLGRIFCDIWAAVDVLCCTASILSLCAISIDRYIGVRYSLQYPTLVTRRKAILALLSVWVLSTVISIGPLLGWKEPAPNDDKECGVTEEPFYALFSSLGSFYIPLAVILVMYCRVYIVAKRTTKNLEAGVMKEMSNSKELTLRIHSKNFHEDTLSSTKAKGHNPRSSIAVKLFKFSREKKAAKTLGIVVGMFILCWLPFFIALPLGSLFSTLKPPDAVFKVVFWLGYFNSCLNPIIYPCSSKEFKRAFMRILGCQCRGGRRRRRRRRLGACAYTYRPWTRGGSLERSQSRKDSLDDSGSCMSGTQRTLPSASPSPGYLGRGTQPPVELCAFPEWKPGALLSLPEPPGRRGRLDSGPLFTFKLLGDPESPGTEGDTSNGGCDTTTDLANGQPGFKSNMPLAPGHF
Protocol: To evaluate in radioligand binding assays the activity of compounds of the invention, rat adrenergic α1D receptor obtained from Wistar Rat liver (Garcia-S'ainz, J. et al, Biochem. Biophys. Res. Commun. 186:760, 1992; Michel, A. et al, Br. J. Pharmacol. 98:883, 1989) in a modified Tris-HCl buffer (50 mM Tris-HCl buffer, pH 7.4, 0.5 mM EDTA) was used. Compounds of the invention were incubated with 0.25 nM [^3H]Prazosin for 60 min at 25° C. Non-specific binding was estimated in the presence of 10 μM phentolamine Receptor proteins were filtered and washed, the filters were then counted to determine [^3H]Prazosin specifically bound. […] Compounds of the invention were tested in this biochemical assay and percent inhibition of specific binding was determined.

[4] = target: T5, human recombinant serotonin (5-Hydroxytryptamine) 5-HT2C receptor (Homo sapiens, UniProt P28335); test: Serotonin 5-HT2C radioligand binding ([3H]Mesulergine); settings: compound at 0.1 μM; read-out: Inhibition of ligand binding, Serotonin 5-HT2C (percent inhibition of specific binding)
T5 construct: expressed in transfected cells; host or cells: CHO-K1
T5 sequence (P28335 33-458): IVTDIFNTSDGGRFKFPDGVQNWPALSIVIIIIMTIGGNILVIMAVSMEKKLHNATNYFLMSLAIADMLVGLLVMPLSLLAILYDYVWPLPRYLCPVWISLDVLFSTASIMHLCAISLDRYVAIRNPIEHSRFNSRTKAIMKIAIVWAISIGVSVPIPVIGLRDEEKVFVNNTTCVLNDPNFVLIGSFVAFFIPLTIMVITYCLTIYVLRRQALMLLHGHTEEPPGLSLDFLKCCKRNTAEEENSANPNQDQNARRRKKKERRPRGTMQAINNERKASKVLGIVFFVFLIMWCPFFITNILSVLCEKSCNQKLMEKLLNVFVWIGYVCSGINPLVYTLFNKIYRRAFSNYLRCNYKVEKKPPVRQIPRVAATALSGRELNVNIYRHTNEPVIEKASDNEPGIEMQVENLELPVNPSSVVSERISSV
Protocol: Compounds of the invention were incubated with 1 nM [^3H]Mesulergine for 60 min at 25° C. Non-specific binding was estimated in the presence of 1 μM Mianserin. Receptor proteins were filtered and washed, the filters were then counted to determine [^3H]Mesulergine specifically bound.

CNC(=O)c1cccc(-c2ccc(-n3c4c(c5cc(C)ccc53)CN(C)CC4)nc2)c1 [Compound No. 143, 3-(6-(2,8-dimethyl-3,4-dihydro-1H-pyrido[4,3-b]indol-5(2H)-yl)pyridin-3-yl)-N-methylbenzamide]
inhibition at 0.1 µM [1]: 44% | inhibition at 0.1 µM [2]: 77% | inhibition at 0.1 µM [3]: 55% | inhibition at 0.1 µM (Adrenergic α1B): 83% | inhibition at 0.1 µM [4]: 44%
